From article PMC411064 (BMC Medicine, 2004)
“And” between values parts separate entries of the source, which are not always exact repeats. Equal values may be shown once. Read-outs that look alike come from different tables or passages of the source. Marks after values point to notes of the source that are not given here.

Legend:
[1] = cited from earlier work; for observed variability in the area under the curve: oral
Caco-2 cells [2] = experiment: Inhibition of CPT efflux; format: in vitro ADME, human; conditions: for decrease of CPT secretory permeability in the presence of inhibitor: BL to AP
[3] = CPT directional transport across MDCK II/wt cell monolayers; format: in vitro ADME, dog; conditions: dog, MDCK, pH 7.4
MDCK II/wt cells = experiment: as above; format: in vitro ADME, dog; conditions: MDCK II/wt
[4] = target: human P-glycoprotein (PGP) (ABCB1) (Homo sapiens, UniProt P08183); experiment: CPT directional transport across MDCK II/PGP cell monolayers; format: in vitro ADME
Caco-2 cells [5] = experiment: CPT directional transport across Caco-2 cell monolayers; format: in vitro ADME, human
[6] = target: human multidrug resistance protein 2 (MRP2) (ABCC2) (Homo sapiens, UniProt Q92887); experiment: CPT directional transport across MDCK II/MRP2 cell monolayers; format: in vitro ADME
[7] = format: in vitro ADME; conditions: rat intestinal and liver s9 fractions and microsomes; data not shown
[8] = tested on: CC[C@@]1(O)C(=O)OCc2c1cc1n(c2=O)Cc2cc3ccccc3nc2-1; experiment: CPT directional transport across MDCK II/PGP cell monolayers; format: in vitro ADME, human; conditions: other: MDCK II/PGP, 37.0 °C
[9] = read-out: Km value of etoposide; estimated in the authors' laboratory; cited from earlier work
[10] = substrate: CC[C@@]1(O)C(=O)OCc2c1cc1n(c2=O)Cc2cc3ccccc3nc2-1; experiment: CPT directional transport across MDCK II/MRP2 cell monolayers; format: in vitro ADME, human; conditions: other: MDCK II/MRP2, 37.0 °C
[11] = orally administered, clinical evaluation

human P-glycoprotein (PGP) (ABCB1), sequence (P08183 whole entry): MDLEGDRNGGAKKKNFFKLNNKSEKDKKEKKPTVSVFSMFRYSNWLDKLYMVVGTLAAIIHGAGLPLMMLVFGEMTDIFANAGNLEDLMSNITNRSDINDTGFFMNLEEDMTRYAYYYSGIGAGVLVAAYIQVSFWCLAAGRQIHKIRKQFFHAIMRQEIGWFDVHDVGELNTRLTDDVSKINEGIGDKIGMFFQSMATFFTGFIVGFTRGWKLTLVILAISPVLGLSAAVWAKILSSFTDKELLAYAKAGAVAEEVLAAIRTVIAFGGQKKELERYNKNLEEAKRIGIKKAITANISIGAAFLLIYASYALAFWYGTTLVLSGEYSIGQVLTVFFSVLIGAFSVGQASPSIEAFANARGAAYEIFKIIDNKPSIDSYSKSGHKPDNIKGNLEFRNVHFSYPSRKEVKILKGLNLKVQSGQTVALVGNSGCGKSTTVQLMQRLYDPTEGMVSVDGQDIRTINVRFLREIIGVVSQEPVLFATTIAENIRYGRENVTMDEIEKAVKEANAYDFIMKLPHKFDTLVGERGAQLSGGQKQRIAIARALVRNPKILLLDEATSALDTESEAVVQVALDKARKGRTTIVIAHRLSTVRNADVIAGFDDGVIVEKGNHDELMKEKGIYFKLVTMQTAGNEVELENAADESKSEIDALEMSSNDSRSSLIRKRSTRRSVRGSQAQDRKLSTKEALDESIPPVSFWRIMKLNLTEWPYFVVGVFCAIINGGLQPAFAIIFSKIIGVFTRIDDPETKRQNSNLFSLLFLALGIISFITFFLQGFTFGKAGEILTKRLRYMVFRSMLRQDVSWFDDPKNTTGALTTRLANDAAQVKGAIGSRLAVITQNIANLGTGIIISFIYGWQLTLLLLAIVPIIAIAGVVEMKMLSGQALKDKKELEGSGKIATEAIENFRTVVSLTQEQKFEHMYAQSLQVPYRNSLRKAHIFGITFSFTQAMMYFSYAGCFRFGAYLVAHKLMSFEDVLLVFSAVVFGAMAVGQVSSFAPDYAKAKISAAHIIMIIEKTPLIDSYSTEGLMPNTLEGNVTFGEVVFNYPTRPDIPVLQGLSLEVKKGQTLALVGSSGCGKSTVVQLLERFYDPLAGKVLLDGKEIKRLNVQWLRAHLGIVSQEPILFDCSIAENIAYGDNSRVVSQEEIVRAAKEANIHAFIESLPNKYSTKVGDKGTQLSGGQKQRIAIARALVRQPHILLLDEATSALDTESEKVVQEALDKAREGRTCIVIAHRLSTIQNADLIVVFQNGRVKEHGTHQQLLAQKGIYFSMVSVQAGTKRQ

CC[C@@]1(O)C(=O)OCc2c1cc1n(c2=O)Cc2cc3c(CN(C)C)c(O)ccc3nc2-1 [TPT, topotecan]
observed variability in the area under the curve [1]: 41%

COc1cc2c(cc1OC)CN(CCc1ccc(NC(=O)c3cccc4c(=O)c5cccc(OC)c5[nH]c34)cc1)CC2 [GF120918]
decrease of CPT secretory permeability in the presence of inhibitor (Caco-2 cells [2]): 52.5%
reduction of CPT efflux (Caco-2 cells [2]; GF120918 0.4 μM, CPT 10 μM): 2.1 fold
effect of increasing inhibitor concentration on CPT efflux (Caco-2 cells [2]; GF120918 0.8–1.2 μM, data not shown): not further reduced

CC[C@@]1(O)C(=O)OCc2c1cc1n(c2=O)Cc2cc3ccccc3nc2-1 [CPT, 20-(S)-camptothecin]
efflux ratio at 105 min [3]: ~1
Pc carrier permeability, absorptive (MDCK II/wt cells; AP to BL): 2.5 ± 0.7 cm/s × 10^5
Pc carrier permeability, secretory (MDCK II/wt cells; BL to AP): 2.0 ± 0.2 cm/s × 10^5
Km (MDCK II/wt cells; read-out: Km, absorptive (apical to bisolateral), AP to BL): 71.5 ± 9.7 µM
Km (MDCK II/wt cells; read-out: Km, secretory (bisolateral to apical), BL to AP): 81.3 ± 14.6 µM
Pc carrier permeability, absorptive ([4]; AP to BL): 2.2 ± 0.5 cm/s × 10^5
Pc carrier permeability, secretory ([4]; BL to AP): 4.1 ± 0.4 cm/s × 10^5
variability in the area under the curve [1, 11]: 164%
variability in the bioavailability [1, 11]: 10 fold
Pc carrier permeability, absorptive (Caco-2 cells [5]; AP to BL): 8.3 ± 0.3 cm/s × 10^5
Pm passive permeability, absorptive (Caco-2 cells [5]; AP to BL, estimated as Peff at 4°C): 0.43 ± 0.05^a cm/s × 10^5
Pc carrier permeability, secretory (Caco-2 cells [5]; BL to AP): 2.1 ± 0.1 cm/s × 10^5
energy of activation (Ea) of efflux (Caco-2 cells [5]; BL to AP, Arrhenius plot, 4°C to 37°C): ~ 11.3 kcal/mole
Pm passive permeability, secretory (Caco-2 cells [5]; BL to AP, estimated as efflux Peff at 4°C): 0.35 ± 0.04^a cm/s × 10^5
Pc for CPT secretory efflux (Caco-2 cells [5]; BL to AP, weighted nonlinear regression): 2.1 ± 0.1 × 10^-5 cm/s
Km (Caco-2 cells [5]; read-out: Km, secretory (bisolateral to apical), BL to AP, weighted nonlinear regression): 132 µM and 133 µM
Pc carrier permeability, absorptive ([6]; AP to BL): 2.5 ± 0.4 cm/s × 10^5
Pc carrier permeability, secretory ([6]; BL to AP): 4.3 ± 0.7 cm/s × 10^5
degradation on incubation [7]: Minimal degradation

human P-glycoprotein (PGP) (ABCB1) (Homo sapiens)
Km ([8]; AP to BL): 69.7 ± 7.6 µM
Km ([8]; BL to AP): 36.3 ± 7.5 µM

CCc1c2c(nc3ccc(OC(=O)N4CCC(N5CCCCC5)CC4)cc13)-c1cc3c(c(=O)n1C2)COC(=O)[C@]3(O)CC [CPT-11, irinotecan]
observed variability in the area under the curve [1]: 50%

COc1cc([C@@H]2c3cc4c(cc3[C@@H](O[C@@H]3O[C@@H]5CO[C@@H](C)O[C@H]5[C@H](O)[C@H]3O)[C@H]3COC(=O)[C@H]23)OCO4)cc(OC)c1O [etoposide]
Km [9]: ~213 µM
decrease of CPT secretory permeability in the presence of inhibitor (Caco-2 cells [2]): 25.6%
reduction of CPT efflux permeability (Caco-2 cells [2]; etoposide 200 μM, CPT 10 μM): 1.3 fold

B1: human multidrug resistance protein 2 (MRP2) (ABCC2) (Homo sapiens) (protein)
chain: MLEKFCNSTFWNSSFLDSPEADLPLCFEQTVLVWIPLGYLWLLAPWQLLHVYKSRTKRSSTTKLYLAKQVFVGFLLILAAIELALVLTEDSGQATVPAVRYTNPSLYLGTWLLVLLIQYSRQWCVQKNSWFLSLFWILSILCGTFQFQTLIRTLLQGDNSNLAYSCLFFISYGFQILILIFSAFSENNESSNNPSSIASFLSSITYSWYDSIILKGYKRPLTLEDVWEVDEEMKTKTLVSKFETHMKRELQKARRALQRRQEKSSQQNSGARLPGLNKNQSQSQDALVLEDVEKKKKKSGTKKDVPKSWLMKALFKTFYMVLLKSFLLKLVNDIFTFVSPQLLKLLISFASDRDTYLWIGYLCAILLFTAALIQSFCLQCYFQLCFKLGVKVRTAIMASVYKKALTLSNLARKEYTVGETVNLMSVDAQKLMDVTNFMHMLWSSVLQIVLSIFFLWRELGPSVLAGVGVMVLVIPINAILSTKSKTIQVKNMKNKDKRLKIMNEILSGIKILKYFAWEPSFRDQVQNLRKKELKNLLAFSQLQCVVIFVFQLTPVLVSVVTFSVYVLVDSNNILDAQKAFTSITLFNILRFPLSMLPMMISSMLQASVSTERLEKYLGGDDLDTSAIRHDCNFDKAMQFSEASFTWEHDSEATVRDVNLDIMAGQLVAVIGPVGSGKSSLISAMLGEMENVHGHITIKGTTAYVPQQSWIQNGTIKDNILFGTEFNEKRYQQVLEACALLPDLEMLPGGDLAEIGEKGINLSGGQKQRISLARATYQNLDIYLLDDPLSAVDAHVGKHIFNKVLGPNGLLKGKTRLLVTHSMHFLPQVDEIVVLGNGTIVEKGSYSALLAKKGEFAKNLKTFLRHTGPEEEATVHDGSEEEDDDYGLISSVEEIPEDAASITMRRENSFRRTLSRSSRSNGRHLKSLRNSLKTRNVNSLKEDEELVKGQKLIKKEFIETGKVKFSIYLEYLQAIGLFSIFFIILAFVMNSVAFIGSNLWLSAWTSDSKIFNSTDYPASQRDMRVGVYGALGLAQGIFVFIAHFWSAFGFVHASNILHKQLLNNILRAPMRFFDTTPTGRIVNRFAGDISTVDDTLPQSLRSWITCFLGIISTLVMICMATPVFTIIVIPLGIIYVSVQMFYVSTSRQLRRLDSVTRSPIYSHFSETVSGLPVIRAFEHQQRFLKHNEVRIDTNQKCVFSWITSNRWLAIRLELVGNLTVFFSALMMVIYRDTLSGDTVGFVLSNALNITQTLNWLVRMTSEIETNIVAVERITEYTKVENEAPWVTDKRPPPDWPSKGKIQFNNYQVRYRPELDLVLRGITCDIGSMEKIGVVGRTGAGKSSLTNCLFRILEAAGGQIIIDGVDIASIGLHDLREKLTIIPQDPILFSGSLRMNLDPFNNYSDEEIWKALELAHLKSFVASLQLGLSHEVTEAGGNLSIGQRQLLCLGRALLRKSKILVLDEATAAVDLETDNLIQTTIQNEFAHCTVITIAHRLHTIMDSDKVMVLDNGKIIECGSPEELLQIPGPFYFMAKEAGIENVNSTKF
Km ([10]; AP to BL): 101.2 ± 17.8 µM
Km ([10]; BL to AP): 65.8 ± 6.7 µM
